Biological target: T1, glucocorticoid receptor (GR) (Homo sapiens, UniProt P04150)
T1 construct: made in house; host or cells: Sf9 cells infected with recombinant baculovirus (cytosol preparation)
T1 sequence (P04150 1-777): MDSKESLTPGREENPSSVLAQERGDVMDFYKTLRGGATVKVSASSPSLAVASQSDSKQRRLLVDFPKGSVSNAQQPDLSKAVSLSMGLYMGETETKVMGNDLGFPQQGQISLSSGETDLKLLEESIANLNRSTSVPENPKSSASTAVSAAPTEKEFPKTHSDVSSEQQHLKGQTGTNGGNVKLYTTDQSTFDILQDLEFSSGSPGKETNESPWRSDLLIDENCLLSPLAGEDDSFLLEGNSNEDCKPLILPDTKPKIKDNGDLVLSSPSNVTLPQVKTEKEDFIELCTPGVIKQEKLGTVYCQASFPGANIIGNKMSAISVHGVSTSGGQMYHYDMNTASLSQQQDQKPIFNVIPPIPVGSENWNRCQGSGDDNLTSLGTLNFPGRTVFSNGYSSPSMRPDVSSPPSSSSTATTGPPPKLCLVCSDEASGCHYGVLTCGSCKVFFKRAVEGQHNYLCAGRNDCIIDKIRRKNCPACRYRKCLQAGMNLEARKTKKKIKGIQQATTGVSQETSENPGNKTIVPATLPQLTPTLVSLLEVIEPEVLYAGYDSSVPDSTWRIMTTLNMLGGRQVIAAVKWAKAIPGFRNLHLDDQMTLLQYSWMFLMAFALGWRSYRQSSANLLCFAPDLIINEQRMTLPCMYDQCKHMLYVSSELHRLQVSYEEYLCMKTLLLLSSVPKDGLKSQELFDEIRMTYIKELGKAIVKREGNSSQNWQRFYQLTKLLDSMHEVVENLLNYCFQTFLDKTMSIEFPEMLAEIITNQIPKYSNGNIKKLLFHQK
Experiment: Binding to recombinantly produced glucocorticoid receptor, cytosol preparations of Sf9 cells, vs [3H]-dexamethasone
Settings: recombinant GR
From the text: The binding of the substances to the glucocorticoid receptor (GR) and other steroid hormone receptors (mineral corticoid receptor (MR), progesterone receptor (PR) and androgen receptor (AR)) is examined with the aid of recombinantly produced receptors. Cytosol preparations of Sf9 cells, which had been infected with recombinant baculoviruses, which code for the GR, are used for the binding studies. In comparison to reference substance [^3H]-dexamethasone, the substances show a high to very high affinity to GR.
Moreover, the compounds of formula (I) substituted by quinazolines, quinoxalines, cinnolines, indazoles, phthalazines, naphthyridines, benzothiazoles, dihydroindolones, dihydroisoindolones, benzimidazoles and indoles that are described here show a high selectivity for the glucocorticoid receptor.

IC50	SMILES
1.8 nM	COc1ccc(F)cc1C(C)(C)CC(O)(CNc1cccc2nc(C)ncc12)C(F)(F)F (centres unmarked) [Example 2, 4-(5-Fluoro-2-methoxyphenyl)-4-methyl-1-(2-methylquinazolin-5-ylamino)-2-(trifluoromethyl)-pentan-2-ol]
10 nM	COc1cc(Cl)ccc1C(C)(C)CC(O)(CNc1ccnc2nc(C)ccc12)C(F)(F)F (centres unmarked) [Example 52, 4-(4-Chloro-2-methoxyphenyl)-4-methyl-1-(2-methyl-1,8-naphthyridin-5-ylamino)-2-(trifluoromethyl)pentan-2-ol]

From patent US20050090559A1, “Heterocyclically-substituted pentanol derivatives, process for their production and their use as anti-inflammatory agents” (priority 2003, published 2005)
